The molecules below were run against T1, GPR119 receptor (Mesocricetus auratus, UniProt A0A1U8CD06) (assay: cAMP assay in HIT-T15 hamster pancreatic islet cells (functional agonist activity)). Details: HIT-T15 cells endogenously expressing GPR119; 30 min at 25° C.; intracellular cAMP.
T1 construct: which endogenously express the GPR119 receptor; host or cells: HIT-T15 hamster pancreatic islet cells
T1 sequence (A0A1U8CD06 1-334): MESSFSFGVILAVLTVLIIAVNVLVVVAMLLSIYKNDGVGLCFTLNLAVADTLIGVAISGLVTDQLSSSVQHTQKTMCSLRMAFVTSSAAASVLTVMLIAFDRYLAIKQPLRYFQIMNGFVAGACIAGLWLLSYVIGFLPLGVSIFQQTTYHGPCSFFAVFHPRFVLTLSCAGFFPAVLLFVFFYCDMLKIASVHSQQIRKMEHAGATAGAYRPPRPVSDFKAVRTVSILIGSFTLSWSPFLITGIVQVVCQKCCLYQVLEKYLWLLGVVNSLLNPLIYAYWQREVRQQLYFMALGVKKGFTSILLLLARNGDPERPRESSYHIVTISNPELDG
Format: cell-based
Summary of the method: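 HIT-T15 cells (endogenous GPR119), 9000/well, exposed to agonist 30 min at 25° C with 0.5 mM IBMX and 0.5 mg/ml BSA. Lysate cAMP measured by chemiluminescent competitive immunoassay; EC50 from curve fit.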
With `CC(C)OC(=O)N1CCC(n2ncc3c(Oc4ccc(S(C)(=O)=O)cc4)ncnc32)CC1` [Example 21, 4-[4-(4-Methanesulfonyl-phenoxy)-pyrazolo[3,4-d]pyrimidin-1-yl]-piperidine-1-carboxylic acid isopropyl ester] the EC50 was 0.26 µM. `CC(C)(C)OC(=O)N1CCC(n2ncc3c(Oc4ccc(-n5cncn5)cc4)ncnc32)CC1` [Example 80, 4-[4-(4-[1,2,4]Triazol-1-yl-phenoxy)-pyrazolo[3,4-d]pyrimidin-1-yl]-piperidine-1-carboxylic acid tert-butyl ester] was tested, and the EC50 was 0.046 µM. Work on `CC(C)(C)OC(=O)N1CCC(n2ncc3c(Oc4ccc5[nH]ccc5c4)ncnc32)CC1` [Example 74, 4-[4-(1H-Indol-5-yloxy)-pyrazolo[3,4-d]pyrimidin-1-yl]-piperidine-1-carboxylic acid tert-butyl ester] yielded an EC50 of 1.9 µM. With `CC(C)(C)OC(=O)N1CCC(n2ncc3c(Oc4ccc(C(N)=O)cc4)ncnc32)CC1` [Example 62, 4-[4-(4-Carbamoyl-phenoxy)-pyrazolo[3,4-d]pyrimidin-1-yl]-piperidine-1-carboxylic acid tert-butyl ester] the EC50 was 0.65 µM. In the case of `CC(C)(C)OC(=O)N1CCC(n2ncc3c(Oc4ccc(Cl)cc4Cl)ncnc32)CC1` [Example 38, 4-[4-(2,4-Dichloro-phenoxy)-pyrazolo[3,4-d]pyrimidin-1-yl]-piperidine-1-carboxylic acid tert-butyl ester], the EC50 is reported as 0.49 µM. For `CC(C)(C)OC(=O)N1CCC(n2ncc3c(Oc4cccnc4C#N)ncnc32)CC1` [Example 99, 4-[4-(2-Cyano-pyridin-3-yloxy)-pyrazolo[3,4-d]pyrimidin-1-yl]-piperidine-1-carboxylic acid tert-butyl ester], the EC50 was 0.2 µM. `CC(C)c1noc(C2CCC(n3ncc4c(Oc5ccc(S(C)(=O)=O)cc5F)ncnc43)CC2)n1` (stereo not shown) [Example 131, 4-(2-Fluoro-4-methanesulfonyl-phenoxy)-1-[4-(3-isopropyl-[1,2,4]oxadiazol-5-yl)-cyclohexyl]-1H-pyrazolo[3,4-d]pyrimidine] showed an EC50 of 0.39 µM. Molecule `CC(C)(C)OC(=O)N1CCC(n2ncc3c(Oc4cc(F)cc(C(F)(F)F)c4)ncnc32)CC1` [Example 53, 4-[4-(3-Fluoro-5-trifluoromethyl-phenoxy)-pyrazolo[3,4-d]pyrimidin-1-yl]-piperidine-1-carboxylic acid tert-butyl ester] has an EC50 of 0.49 µM. With `CS(=O)(=O)c1ccc(Oc2ncnc3c2cnn3C2CCN(Cc3ccc(F)cc3)CC2)cc1` [Example 159, 1-[1-(4-Fluoro-benzyl)-piperidin-4-yl]-4-(4-methanesulfonyl-phenoxy)-1H-pyrazolo[3,4-d]pyrimidine] the EC50 was 0.2 µM. Molecule `CS(=O)(=O)c1ccc(Oc2ncnc3c2cnn3C2CCN(C(=O)C(F)(F)F)CC2)cc1` [Example 148, 2,2,2-Trifluoro-1-{4-[4-(4-methanesulfonyl-phenoxy)-pyrazolo[3,4-d]pyrimidin-1-yl]-piperidin-1-yl}-ethanone] has an EC50 of 1.7 µM. Molecule `CC(C)c1noc(N2CCC(n3ncc4c(Oc5ccc(S(C)(=O)=O)cc5)ncnc43)CC2)n1` [Example 126, 1-[1-(3-Isopropyl-[1,2,4]oxadiazol-5-yl)-piperidin-4-yl]-4-(4-methanesulfonyl-phenoxy)-1H-pyrazolo[3,4-d]pyrimidine] has an EC50 of 0.43 µM. In the case of `CS(=O)(=O)c1ccc(Nc2ncnc3c2cnn3C2CCN(Cc3ccccc3)CC2)c(F)c1` [Example 11, [1-(1-Benzyl-piperidin-4-yl)-1H-pyrazolo[3,4-d]pyrimidin-4-yl]-(2-fluoro-4-methanesulfonylphenyl)-amine], the EC50 is reported as 2.5 µM. For `CC(=O)N1CCN(c2ccc(Oc3ncnc4c3cnn4C3CCN(C(=O)OC(C)(C)C)CC3)cc2)CC1` [Example 67, 4-{4-[4-(4-Acetyl-piperazin-1-yl)-phenoxy]-pyrazolo[3,4-d]pyrimidin-1-yl}-piperidine-1-carboxylic acid tert-butyl ester], the EC50 was 0.85 µM. In the case of `Cc1ncccc1Nc1ncnc2c1cnn2C1CCN(C(=O)OC(C)(C)C)CC1` [Example 7, 4-[4-(2-Methyl-pyridin-3-ylamino)-pyrazolo[3,4-d]pyrimidin-1-yl]-piperidine-1-carboxylic acid tert-butyl ester], the EC50 is reported as 2.2 µM. Work on `CCOc1ccc(Oc2ncnc3c2cnn3C2CCN(C(=O)OC3CCCC3)CC2)c(F)c1` [Example 117, 4-[4-(4-Ethoxy-2-fluoro-phenoxy)-pyrazolo[3,4-d]pyrimidin-1-yl]-piperidine-1-carboxylic acid cyclopentyl ester] yielded an EC50 of 0.17 µM. `Cc1ncccc1Oc1ncnc2c1cnn2C1CCN(C(=O)OC2CCC2)CC1` [Example 116, 4-[4-(2-Methyl-pyridin-3-yloxy)-pyrazolo[3,4-d]pyrimidin-1-yl]-piperidine-1-carboxylic acid cyclobutyl ester] showed an EC50 of 0.55 µM. In the case of `CCOC(=O)N1CCC(n2ncc3c(Oc4ccc(S(C)(=O)=O)cc4F)ncnc32)CC1` [Example 14, 4-[4-(2-Fluoro-4-methanesulfonyl-phenoxy)-pyrazolo[3,4-d]pyrimidin-1-yl]-piperidine-1-carboxylic acid ethyl ester], the EC50 is reported as 0.14 µM. `CC(C)OC(=O)N1CCC(n2ncc3c(Oc4cc(F)c(F)cc4F)ncnc32)CC1` [Example 16, 4-[4-(2,4,5-Trifluoro-phenoxy)-pyrazolo[3,4-d]pyrimidin-1-yl]-piperidine-1-carboxylic acid isopropyl ester] gave an EC50 of 0.21 µM. In the case of `Cc1nnnn1-c1ccc(Oc2ncnc3c2cnn3C2CCN(C(=O)OC(C)C)CC2)cc1` [Example 26, 4-{4-[4-(5-Methyl-tetrazol-1-yl)-phenoxy]-pyrazolo[3,4-d]pyrimidin-1-yl}-piperidine-1-carboxylic acid isopropyl ester], the EC50 is reported as 0.95 µM. `CC(C)(C)OC(=O)N1CCC(n2ncc3c(Oc4ccc5c(c4)CCS5(=O)=O)ncnc32)CC1` [Example 79, 4-[4-(1,1-Dioxo-2,3-dihydro-1H-1λ^6-benzo[b]thiophen-5-yloxy)-pyrazolo[3,4-d]pyrimidin-1-yl]-piperidine-1-carboxylic acid tert-butyl ester] showed an EC50 of 0.82 µM. For `CS(=O)(=O)c1ccc(Oc2ncnc3c2cnn3C2CCN(Cc3cccc(OC(F)(F)F)c3)CC2)cc1` [Example 162, 4-(4-Methanesulfonyl-phenoxy)-1-[1-(3-trifluoromethoxy-benzyl)-piperidin-4-yl]-1H-pyrazolo[3,4-d]pyrimidine], the EC50 was 0.12 µM.

Each molecule was assayed on C57B1/6J mice (assay: oral glucose tolerance test (OGTT) in C57B1/6J mice). Details: 30 mg/kg oral gavage, 2 g/kg glucose bolus two hours after dosing; vs vehicle treated mice.
Format: in vivo
Method: The in vivo activity of selected compounds of the invention was characterized using an oral glucose tolerance test in C57B1/6J mice.
C57B1/6J mice were obtained from Jackson Laboratory (Bar Harbor, Me.) and were maintained in a light-dark cycle with lights on from 0600-1800 hr. The mice were received at age nine weeks and given ad libitum access to diet (LabDiet 5001 chow, PMI Nutrition, Brentwood, Mo.), and were at age 10 weeks at the time of study The experiments were conducted during the light phase of the light-dark cycle. Mice (n=10) were weighed and fasted for a four hour period prior to treatment with GPR119 agonists or formulation vehicle via oral gavage. GPR119 agonists were formulated in Klucel vehicle (2% Klucel LF with 0.1% Tween 80, in water) at a concentration of 4.0 mg/mL and the mice were dosed with a 7.5 mL/kg volume to equal a 30 mg/kg dose. Two hours following dosing, the animals were given an oral glucose tolerance test (OGTT). For the OGTT, the animals were given a 2 g/kg glucose bolus via oral gavage. Blood glucose readings were made immediately prior to the glucose challenge, and 30, 60 and 120 minutes following. […] Area under the curve (AUC) for plots of blood glucose vs. time for the individual mice was calculated by the trapezoidal method. […]
With `CC(C)OC(=O)N1CCC(n2ncc3c(Oc4ccc(S(C)(=O)=O)cc4)ncnc32)CC1` [Example 21, 4-[4-(4-Methanesulfonyl-phenoxy)-pyrazolo[3,4-d]pyrimidin-1-yl]-piperidine-1-carboxylic acid isopropyl ester] the “decrease in mean baseline-subtracted AUC (blood glucose vs. time)” value was 44%.

From US8188098B2, “GPR119 receptor agonists” (Hoffmann-La Roche Inc., priority 2008, dated 2012)
